This is an account of results in patent US20080187556A1 (priority 2005, published 2008).

Converted amounts (≈) assume the structure as drawn. Ends that are not written are not given here.

One assay concerns H22 hepatic carcinoma. Further details: species or system mice. Conditions: mouse, in vivo.
The next assay concerns S180 sarcoma. The arrangement: species or system mice. The conditions noted are these: mouse, in vivo.
The test system of another assay is mononuclear phagocytes. Further details: species or system mice. The conditions noted are these: mouse, in vivo.
A further assay relates to HeLa. Kind of assay: cells. The format is cell-based. Conditions: Homo sapiens.
For the next assay, the system named is A431. Put plainly: cells. The format is cell-based. Conditions: Homo sapiens, A-431.
In another assay the test system is CaEs-17. Put plainly: cells. The assay is classed as cell-based. Conditions: Homo sapiens, CaEs17.
The subject of the next assay is BGC-823. Kind of assay: cells. Conditions: Homo sapiens. The assay is classed as cell-based.
For a further assay, the system named is MCF-7. Put plainly: cells. The format is cell-based. Conditions: Homo sapiens, MCF7.
The test system of a further assay is Ketr-3. Kind of assay: cells. The format is cell-based. The conditions noted are these: Homo sapiens, KETR3.
For another assay, the system named is PC-3M. Kind of assay: cells. The format is cell-based. The conditions noted are these: Homo sapiens.
For another assay, the system named is EJ. Put plainly: cells. The format is cell-based. The conditions noted are these: Homo sapiens.
The subject of another assay is KB. Put plainly: cells. The conditions noted are these: Homo sapiens. The assay is classed as cell-based.
For the next assay, the system named is Bel7402. Kind of assay: cells. The assay is classed as cell-based. Conditions: Homo sapiens, Bel-7402.
The test system of the next assay is A549. Kind of assay: cells. The assay is classed as cell-based. Conditions: Homo sapiens.
The next assay concerns HCT-8. Kind of assay: cells. The format is cell-based. Conditions: Homo sapiens.
For another assay, the system named is Tca83. Kind of assay: cells. The conditions noted are these: Homo sapiens. The assay is classed as cell-based.
In a further assay the test system is Hep-2. Put plainly: cells. The conditions noted are these: Homo sapiens. The assay is classed as cell-based.
For another assay, the system named is HELF. Kind of assay: cells. The conditions noted are these: Homo sapiens. The format is cell-based.
Details of assay [1]: species or system mice. The conditions noted are these: mouse, in vivo.

As for `O=P1(N(CCCl)CCCl)NCCCO1` (stereo not shown) [Cyclophosphamide], the “pathological picture of tumor tissue” value with H22 hepatic carcinoma was “necrotic and degenerated tissue scattered”. In addition, the “pathological picture of tumor tissue” value in the assay with S180 sarcoma was “necrotic and degenerated tissue scattered”. For the same compound, in the assay on mononuclear phagocytes, the “Index of phagocytosis, K” value is given as 0.0744 ± 0.0081 and the “Phagocytosis activity, α” value worked out at 4.4614 ± 0.2413.
`O=c1[nH]cc(F)c(=O)[nH]1` [Fluorouracil]: the half-inhibitory concentration (IC50) (in general, the concentration at which inhibition is half-maximal) came to 0.613 ± 0.05 µg/mL (≈ 4.71 µM) in the assay on HeLa; 0.174 ± 0.0447 µg/mL (≈ 1.34 µM) in the assay on A431; 0.757 ± 0.0254 µg/mL (≈ 5.82 µM) in the assay on CaEs-17; 0.632 ± 0.0572 µg/mL (≈ 4.86 µM) in the assay with BGC-823; 0.646 ± 0.0437 µg/mL (≈ 4.97 µM) in the assay on MCF-7; 0.634 ± 0.0147 µg/mL (≈ 4.87 µM) in the assay with Ketr-3. Further, the IC50 with PC-3M was 1.49 ± 1.07 µg/mL (≈ 11.4 µM); with EJ, 3.69 ± 0.909 µg/mL (≈ 28.4 µM); in the assay with KB, 0.66 ± 0.0085 µg/mL (≈ 5.07 µM); in the assay with Bel7402, 0.718 ± 0.0067 µg/mL (≈ 5.52 µM); with A549, 0.425 ± 0.034 µg/mL (≈ 3.27 µM); in the assay on HCT-8 it was 0.605 ± 0.0278 µg/mL (≈ 4.65 µM). Also, the figures for the IC50 in the assay on Tca83, in the assay with Hep-2 and in the assay with HELF were 0.924 ± 0.0435 µg/mL (≈ 7.1 µM), 4.88 ± 2.22 µg/mL (≈ 37.5 µM) and 0.087 ± 0.004 µg/mL (≈ 0.669 µM), respectively.
Regarding RKDVY [thymopentin], the “pathological picture of tumor tissue” value with H22 hepatic carcinoma was “a little of tumor cell necrosis and degeneration”; in the assay on S180 sarcoma, “a few tumor cells were necrotic and degenerative”.
Regarding “Thymosin Alpha-1 (SDAAVDTSSEITTKDLKEKKEVVEEAEN; not fully specified (N-terminus); ends and bridges not checked; UniProt P06454 2-29, looked up) [biological drug, registration No. H20050339]”, in the assay on mononuclear phagocytes, the “Index of phagocytosis, K” value was determined as 0.3473 ± 0.0130 and the “Phagocytosis activity, α” value is given as 7.9583 ± 0.5069. In [1], this compound displayed an Elongation index of 37.5% and a Swimming time of 18.9 ± 2.98 min.
